Measured values from US20090325936A1, “IMIDAZOPYRIDINE ANALOGS AS CB2 RECEPTOR MODULATORS, USEFUL IN THE TREATMENT OF PAIN, RESPIRATORY AND NON-RESPIRATORY DISEASES” (priority 2006, published 2009).
Like-named read-outs stand apart in the source and are kept apart here.

Experiments:
human CB2 = human CB2 (Homo sapiens, UniProt P34972); test: Cyclic AMP assay (HTRF), CHO cells expressing human CB2; format: cell-based; conditions: for Emax: CHO, read-out: CB2 Emax
Experimental: (§1) Chinese Hamster Ovary cells (CHO) expressing human CB1 or human CB2 (3.3×10^5 cells/ml) were preincubated for 15 min at room temperature with tested agonist and 3-isobutyl-1-methylxanthine (IBMX; 200 μM) in phosphate buffered saline containing 1 mg/ml BSA (assay buffer) followed by 30 min incubation with forskolin in a total volume of 10 μl. The optimal forskolin concentration for each cell line was established in a separate experiment and adjusted to stimulate 70% of maximal cAMP response. cAMP content was measured using an HTRF assay (CisBio) according to the manufacturer's two step protocol.

human CB1 = human CB1 (Homo sapiens, UniProt P21554); test: Cyclic AMP assay (HTRF), CHO cells expressing human CB1; format: cell-based
Experimental: as §1

[1] = agonist, forskolin-stimulated cAMP in CHO cells expressing human CB2, text calls the value IP, read-out: CB2 cAMP

Chain of human CB1 (P21554 whole entry): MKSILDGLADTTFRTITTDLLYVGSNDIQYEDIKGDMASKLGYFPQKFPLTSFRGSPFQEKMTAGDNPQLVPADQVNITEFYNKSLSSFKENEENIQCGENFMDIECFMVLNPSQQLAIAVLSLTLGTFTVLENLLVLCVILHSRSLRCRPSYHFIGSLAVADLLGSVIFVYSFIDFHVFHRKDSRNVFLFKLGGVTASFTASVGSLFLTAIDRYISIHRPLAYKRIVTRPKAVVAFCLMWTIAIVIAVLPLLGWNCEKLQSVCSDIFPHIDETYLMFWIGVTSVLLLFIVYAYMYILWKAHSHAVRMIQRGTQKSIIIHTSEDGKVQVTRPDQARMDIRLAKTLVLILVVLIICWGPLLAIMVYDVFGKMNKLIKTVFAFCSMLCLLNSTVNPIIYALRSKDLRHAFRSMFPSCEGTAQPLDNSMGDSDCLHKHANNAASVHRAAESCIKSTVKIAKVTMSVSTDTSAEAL
Chain of human CB2 (P34972 whole entry): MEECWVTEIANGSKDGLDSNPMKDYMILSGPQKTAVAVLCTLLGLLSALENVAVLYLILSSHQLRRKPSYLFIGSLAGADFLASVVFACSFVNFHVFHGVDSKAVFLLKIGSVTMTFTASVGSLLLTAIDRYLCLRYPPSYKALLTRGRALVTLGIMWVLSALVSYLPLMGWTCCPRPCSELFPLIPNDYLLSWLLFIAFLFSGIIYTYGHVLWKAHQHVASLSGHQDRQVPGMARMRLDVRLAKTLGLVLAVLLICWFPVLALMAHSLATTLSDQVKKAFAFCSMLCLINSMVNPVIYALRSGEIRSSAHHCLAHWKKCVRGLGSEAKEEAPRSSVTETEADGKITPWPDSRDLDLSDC

O=C(Nc1cccc2cnccc12)c1nc(C(=O)N2CCC(F)CC2)n2ccccc12
EC50 (human CB2): 23.5 nM | Emax (human CB2): 79.5% | EC50 (human CB1): 2150 nM

O=C(NC12CC3CC(CC(C3)C1)C2)c1nc(C(O)c2cccnc2)n2ccccc12 (stereo not drawn)
EC50 (human CB2): 46.2 nM | Emax (human CB2): 80.8% | EC50 (human CB1): > 17000 nM

O=C(c1cccc(Cl)c1)c1nc(-c2ccc(F)cc2)n2ccccc12
Emax (human CB2): 63.7% | EC50 (human CB2; [1]): 176 nM | EC50 (human CB1): > 17000 nM

O=C(NC12CC3CC(CC(C3)C1)C2)c1nc(Oc2cccc(F)c2)n2ccccc12
EC50 (human CB2): 1.92 nM | Emax (human CB2): 91.5% | EC50 (human CB1): 140 nM

CC(NC(=O)c1nc(N2CCOCC2)n2ccccc12)C(C)(C)C (stereo not drawn)
EC50 (human CB2): 5.2 nM | Emax (human CB2): 99.5% | EC50 (human CB1): > 17000 nM

O=C(NC12CC3CC(CC(C3)C1)C2)c1nc(C2CCCN2)n2ccccc12 (stereo not drawn)
EC50 (human CB2): 5.93 nM | Emax (human CB2): 87.1% | EC50 (human CB1): 845 nM

O=C(NC1(c2ccccc2)CC1)c1nc(-c2cccc(F)c2)n2ccccc12
EC50 (human CB2): 62 nM | Emax (human CB2): 69.8% | EC50 (human CB1): 544 nM

CC(NC(=O)c1nc(Cl)c2ccccn12)c1ccccc1Cl (stereo not drawn)
EC50 (human CB2): 18.4 nM | Emax (human CB2): 83.8% | EC50 (human CB1): > 17000 nM

O=C(NC(C1CC1)C1CC1)c1nc(-c2ccc(F)cc2)c2ccccn12
EC50 (human CB2): 2.01 nM | Emax (human CB2): 96.4% | EC50 (human CB1): 405 nM

O=C(Nc1ccccc1Cl)c1nc(CN2CCC(O)C2)c2ccccn12 (stereo not drawn)
Emax (human CB2): 69.9% | EC50 (human CB2; [1]): 261 nM | EC50 (human CB1): > 17000 nM

O=C(c1ccc2ccccc2c1)c1nc(CN2CCOCC2)c2ccccn12
EC50 (human CB2): 2.28 nM | Emax (human CB2): 76.7% | EC50 (human CB1): 878 nM

O=C(NCC1CCOCC1)c1nc(-c2cccnc2)n2ccccc12
Emax (human CB2): 74.7% | EC50 (human CB2; [1]): 6430 nM | EC50 (human CB1): > 17000 nM
